Data from patent US12116358B2, “Substituted indoles and methods of use thereof” (EPIZYME, INC., priority 2018, dated 2024).
Like-named read-outs stand apart in the source and are kept apart here.

Assays:
SETD2(1434-1711) = molecular target: T1, SETD2(1434-1711) (Homo sapiens, UniProt Q9BYW2); assay: SETD2 (1434-1711) assay; type: biochemical; settings: read-out: SETD2 (1434-1711)
T1 construct: SETD2 (1434-1711) Assay; catalogue N/A
T1 sequence (Q9BYW2 1434-1711): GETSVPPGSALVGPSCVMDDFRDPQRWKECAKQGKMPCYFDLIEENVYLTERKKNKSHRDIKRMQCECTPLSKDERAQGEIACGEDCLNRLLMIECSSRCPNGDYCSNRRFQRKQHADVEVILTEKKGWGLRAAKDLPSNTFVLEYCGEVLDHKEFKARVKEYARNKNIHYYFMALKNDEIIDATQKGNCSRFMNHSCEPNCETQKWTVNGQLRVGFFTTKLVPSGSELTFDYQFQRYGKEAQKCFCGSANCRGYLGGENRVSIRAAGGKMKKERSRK

H3K36me3 in A549 cells = assay: In-Cell Western (ICW) assay of SETD2 inhibitors (A549 assay); type: cell-based, human; settings: A549 cells, read-out: SETD2 A549
Summary of the method: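 H3K36me3 In-Cell Western: cells exposed to compound for 3 days at 4,000 cells/well, 37° C. DRAQ5 (1:1000) marked cell number, with 700/800-channel Licor read-out.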

SMILES	IC50 (SETD2(1434-1711))	IC50 (H3K36me3 in A549 cells; Homo sapiens)	IC50 (H3K36me3 in A549 cells)
CC(=O)N1CCN([C@H]2CCC[C@@H](NC(=O)c3cc4c(F)ccc(C)c4[nH]3)C2)CC12CC2 [compound 1025]	20 nM	30 nM	–
Cc1ccc(F)c2cc(C(=O)N[C@@H]3CCC[C@H](N4CCN5C(=O)N(C)C[C@H]5C4)C3)[nH]c12 [compound 1126]	20 nM	80 nM	–
Cc1ccc(F)c2cc(C(=O)Nc3cccc(-c4ncno4)c3)[nH]c12 [compound 296]	100 nM	1100 nM	–
Cc1ccc(F)c2cc(C(=O)Nc3cccc(N4CCC(N(C)CCF)C4)c3)[nH]c12 (stereo not drawn) [compound 97]	40 nM	–	200 nM
CC(=O)N1CCCN(C2CCCC(NC(=O)c3cc4c(F)ccc(C)c4[nH]3)C2)CC1 (stereo not drawn) [compound 979]	60 nM	–	500 nM
Cc1ccc(F)c2cc(C(=O)NC3CCCC(N4CCN(C(=O)OC(C)C)CC4)C3)[nH]c12 (stereo not drawn) [compound 998]	1500 nM	–	> 2000 nM
CNC(=O)CN1CCN(C2CCC[C@@H](NC(=O)c3cc4c(F)ccc(C)c4[nH]3)C2)CC1 (stereo partly drawn) [compound 858]	400 nM	–	> 2000 nM
Cc1ccc(F)c2cc(C(=O)Nc3cnc(C4CCN(C)CC4)[nH]3)[nH]c12 [compound 562]	> 10000 nM	> 25000 nM	–
CCN(CC)CCCC(NC(=O)c1cc2cccc(C)c2[nH]1)c1ncccc1C (stereo not drawn) [compound 582]	31200 nM	> 25000 nM	–
Cc1ccc(F)c2cc(C(=O)Nc3cccc(-c4nnc(C5CC5)o4)c3)[nH]c12 [compound 119]	30 nM	–	200 nM
Cc1ccc(F)c2cc(C(=O)Nc3cc(F)cc(C4CCN(C5CC(=O)N(C)C5)C4)c3)[nH]c12 (stereo not drawn) [compound 89]	30 nM	200 nM	–
Cc1cccc2cc(C(=O)NC3CCN(C(=O)CCCN)CC3C)[nH]c12 (stereo not drawn) [compound 614]	62700 nM	–	> 25000 nM
Cc1ccc(F)c2cc(C(=O)NC3CCCC(N4CCN5C(=O)N(C)CC5C4)C3)[nH]c12 (stereo not drawn) [compound 1051]	10 nM	–	30 nM
Cc1cccc2cc(C(=O)NC3CC4CCC(C3)N4C(=O)CCCN)[nH]c12 (stereo not drawn) [compound 552]	7700 nM	–	> 25000 nM
Cc1ccc(F)c2cc(C(=O)NC3CCCC(N4CCCN(C)C(=O)C4)C3)[nH]c12 (stereo not drawn) [compound 370]	6800 nM	–	> 2000 nM
CCN(CC)Cc1cccc(NC(=O)c2cc3cccc(C)c3[nH]2)c1 [compound 486]	1800 nM	10800 nM	–
Cc1cc(C(=O)NC2CCNC2)cnc1C(NC(=O)c1cc2cccc(C)c2[nH]1)C1CC1 (stereo not drawn) [compound 510]	600 nM	–	15500 nM
Cc1ccc(F)c2cc(C(=O)N[C@@H]3CCC[C@H](N4CCN(C)C(=O)C4C)C3)[nH]c12 (stereo partly drawn) [compound 884]	100 nM	200 nM	–
Cc1ccc(F)c2cc(C(=O)Nc3cc(F)cc(N4CCC(N(C)CCF)C4)c3)[nH]c12 (stereo not drawn) [compound 47]	10 nM	–	100 nM
CC(=O)N1CCC(c2cccc(NC(=O)c3cc4c(F)ccc(C)c4[nH]3)c2)C1 (stereo not drawn) [compound 73]	40 nM	–	200 nM

SMILES	IC50 (SETD2(1434-1711))	IC50 (H3K36me3 in A549 cells; Homo sapiens)	IC50 (H3K36me3 in A549 cells)
Cc1cccc2cc(C(=O)N[C@@H]3CCN(C(=O)CCCN)C[C@@H]3C)[nH]c12 [compound 588]	40400 nM	> 25000 nM	–
COCCC(=O)N1CCN(c2cccc(NC(=O)c3cc4c(F)ccc(C)c4[nH]3)c2)CC1 [compound 75]	60 nM	–	200 nM
Cc1ccc(F)c2cc(C(=O)N[C@@H]3CCC[C@H](N4CCN(C5CCOC5)CC4)C3)[nH]c12 (stereo partly drawn) [compound 924]	100 nM	600 nM	–
Cc1cccnc1C(CCC(=O)Nc1cccnc1)NC(=O)c1cc2cccc(C)c2[nH]1 (stereo not drawn) [compound 523]	8800 nM	–	20800 nM
CC(=O)N1CCN(c2ccccc2CNC(=O)c2cc3cccc(C)c3[nH]2)CC1 [compound 499]	9100 nM	–	13900 nM
CCC(=O)N1CCN([C@@H]2CCC[C@@H](NC(=O)c3cc4c(F)ccc(C)c4[nH]3)C2)CC1 [compound 840]	900 nM	–	> 2000 nM
CCC1CN(c2cccc(NC(=O)c3cc4c(F)ccc(C)c4[nH]3)c2)CCN1C(C)=O (stereo not drawn) [compound 71]	40 nM	–	200 nM
Cc1ccc(F)c2cc(C(=O)N[C@@H]3CCC[C@@H](N4CCC(=O)N(C)CC4)C3)[nH]c12 [compound 945]	100 nM	–	> 2000 nM
Cc1ccc(F)c2cc(C(=O)Nc3cccc(-c4ccn[nH]4)c3)[nH]c12 [compound 322]	500 nM	1500 nM	–
Cc1ccc(F)c2cc(C(=O)Nc3cccc(-c4cnn(CCN5CCOCC5)c4)c3)[nH]c12 [compound 164]	100 nM	300 nM	–
Cc1cccnc1C(CCCC(=O)N1CCOCC1)NC(=O)c1cc2cccc(C)c2[nH]1 (stereo not drawn) [compound 494]	6000 nM	–	13200 nM
Cc1ccc(F)c2cc(C(=O)N[C@@H]3CCC[C@@H](N4CCN5C(=O)N(C)C[C@H]5C4)C3)[nH]c12 [compound 1128]	300 nM	1600 nM	–
Cc1cccc2cc(C(=O)NC3CCCCC3)[nH]c12 [compound 522]	10600 nM	–	20600 nM
Cc1ccc(F)c2cc(C(=O)Nc3cc(F)cc(N4CCC(N5CCOC(CO)C5)C4)c3)[nH]c12 (stereo not drawn) [compound 16]	10 nM	–	50 nM
CC(=O)N1CCC2(CC1)CN(c1cc(F)cc(NC(=O)c3cc4c(F)ccc(C)c4[nH]3)c1)C2 [compound 19]	10 nM	–	60 nM
Cc1ccc(F)c2cc(C(=O)Nc3cccc(-c4ncccn4)c3)[nH]c12 [compound 316]	100 nM	1400 nM	–
Cc1ccc(F)c2cc(C(=O)Nc3cccc(N4CCC(NCCN)CC4)c3)[nH]c12 [compound 413]	30 nM	–	3100 nM
CC(=O)N1CC2CC1CN2c1cccc(NC(=O)c2cc3c(F)ccc(C)c3[nH]2)c1 (stereo not drawn) [compound 292]	700 nM	–	1100 nM
Cc1ccc(F)c2cc(C(=O)Nc3cccc(N4CCC5(CCNCC5)C4)c3)[nH]c12 [compound 189]	6 nM	400 nM	–
Cc1ccc(F)c2cc(C(=O)Nc3cccc(N4CCC(OCCN)CC4)c3)[nH]c12 [compound 240]	20 nM	–	600 nM

SMILES	IC50 (SETD2(1434-1711))	IC50 (H3K36me3 in A549 cells; Homo sapiens)	IC50 (H3K36me3 in A549 cells)
Cc1ccc(F)c2cc(C(=O)NC3CCCC(N4CCC(N5CCOC5=O)C4)C3)[nH]c12 (stereo not drawn) [compound 958]	40 nM	–	200 nM
Cc1ccc(F)c2cc(C(=O)Nc3cccc(-c4cc5cnccn5c4)c3)[nH]c12 [compound 215]	70 nM	–	500 nM
Cc1ccc(F)c2cc(C(=O)Nc3cccc(N4CCCS4(=O)=O)c3)[nH]c12 [compound 125]	80 nM	300 nM	–
Cc1ccc(F)c2cc(C(=O)Nc3cccc(-c4ccc(CO)cc4)c3)[nH]c12 [compound 346]	100 nM	–	1800 nM
Cc1ccc(F)c2cc(C(=O)N[C@@H]3CCC[C@H](N4CCN5C(=O)COCC5C4)C3)[nH]c12 (stereo partly drawn) [compound 1045]	8 nM	30 nM	–
CC(=O)N1CCN(C2CCCC(NC(=O)c3cc4c(F)ccc(C)c4[nH]3)C2)CC1C (stereo not drawn) [compound 967]	20 nM	–	100 nM
Cc1ccc(F)c2cc(C(=O)Nc3cccc(N4CCC(N5CCOCC5)C4)c3)[nH]c12 (stereo not drawn) [compound 74]	30 nM	–	200 nM
Cc1ccc(F)c2cc(C(=O)NC3CCCC(N4CCN5C(=O)COCC5C4)C3)[nH]c12 (stereo not drawn) [compound 1140]	50 nM	–	100 nM
Cc1ccc(F)c2cc(C(=O)N[C@@H]3CCC[C@H](N4CCN5C(=O)CCC[C@@H]5C4)C3)[nH]c12 [compound 1044]	20 nM	20 nM	–
CN[C@H]1CCN([C@H]2CCC[C@@H](NC(=O)c3cc4c(F)ccc(C)c4[nH]3)C2)C1 [compound 1087]	10 nM	500 nM	–
Cc1cccc2cc(C(=O)NC3CC(=O)Nc4ccccc4C3)[nH]c12 (stereo not drawn) [compound 520]	12300 nM	–	19800 nM
CC(=O)N1CC2CCC(C1)N2C1CCCC(NC(=O)c2cc3c(F)ccc(C)c3[nH]2)C1 (stereo not drawn) [compound 952]	40 nM	–	400 nM
CC(=O)Nc1cccc(-c2cccc(NC(=O)c3cc4c(F)ccc(C)c4[nH]3)c2)c1 [compound 263]	700 nM	700 nM	–
Cc1ccc(F)c2cc(C(=O)Nc3cc(F)cc(N4CCN(C5CC5)C(=O)C4)c3)[nH]c12 [compound 10]	10 nM	–	40 nM
Cc1ccc(F)c2cc(C(=O)Nc3cccc(NC(=O)C4CCCN4)c3)[nH]c12 (stereo not drawn) [compound 314]	40 nM	1300 nM	–
Cc1ccc(F)c2cc(C(=O)Nc3cccc(N4CC[C@@H](N(C)C)C[C@@H]4C)c3)[nH]c12 [compound 303]	60 nM	1200 nM	–
COC(=O)N1CCC2(CCN(c3cccc(NC(=O)c4cc5c(F)ccc(C)c5[nH]4)c3)CC2)C1 [compound 127]	40 nM	300 nM	–
Cc1ccc(F)c2cc(C(=O)NC3CCCC(N4CCN(C(=O)C(C)C)C(C(F)(F)F)C4)C3)[nH]c12 (stereo not drawn) [compound 1175]	8400 nM	–	> 2000 nM
Cc1ccc(F)c2cc(C(=O)NC3CCCC(N4CCN5C(=O)NCC5C4)C3)[nH]c12 (stereo not drawn) [compound 1050]	1000 nM	–	> 2000 nM
Cc1cccc2cc(C(=O)Nc3cccc(CN4CCOCC4)c3)[nH]c12 [compound 478]	4100 nM	9400 nM	–
